Literature values, collected in patent US20260256788A1, “COMPOSITIONS COMPRISING MELATONIN, 5-FLUOROURACIL AND DIMETHYL SULFOXIDE FOR USE IN THE TREATMENT OF ACTINIC KERATOSIS” (RepoCeuticals A/S, priority 2023, published 2026).

What was measured:
[1] = not given; remark: listed apart in the source

SMILES | solubility in DMSO (in DMSO) | solubility in water [1] | solubility of melatonin in DMSO (in DMSO at room temperature)
O=c1[nH]cc(F)c(=O)[nH]1 [5-FU, 5-fluoro-2,4(1H;3H)-pyrimidinedione] | very soluble | only sparingly soluble | 
COc1ccc2[nH]cc(CCNC(C)=O)c2c1 [melatonin, N-acetyl-5-methoxytryptamine] |  |  | ≥ 232 mg/mL
